Laboratory results taken from US20100099770A1, “METHOD FOR TREATING DIABETIC PERIPHERAL NEUROPATHIC PAIN” (SCHWARZ PHARMA AG, priority 2001, published 2010).
“Also recorded” adds a separate entry of the source. Marks after values point to notes of the source that are not given here.

Tests used:
[1] = test system: chronic constriction injury-induced thermal hyperalgesia; assay: CCI model: thermal hyperalgesia (radiant heat withdrawal latency); type: in vivo, rat; settings: for Thermal hyperalgesia, withdrawal latency, Post-op + Drug: ligated hind paw, ±SEM
Method: (§1) The effectiveness of harkoseride in reducing spontaneous chronic pain, mechanical allodynia, and thermal hyperalgesia was tested using the chronic constriction injury (CCI) model of peripheral neuropathy, one of the best characterised in vivo animal models used to study chronic pain due to peripheral nerve injury. In this model, loose ligatures are placed around the sciatic nerve, which produces axonal swelling and a partial deafferentation manifested as a significant but incomplete loss of axons in the distal portion of the peripheral nerve. One of the prominent behaviours seen following sciatic nerve ligation is the appearance of hind paw guarding, thought to be an indication of an ongoing spontaneous chronic pain. Support for this idea is derived from reports of increased spinal cord neural activity, and increased spontaneous neuronal discharge in spinothalamic tract neurons and in the ventrobasal thalamus in the absence of overt peripheral stimulation. In addition to the appearance of spontaneous pain behaviours, several abnormalities in stimulus evoked pain occur as a result of CCI, including thermal hyperalgesia and mechanical allodynia. The development of these abnormal stimulus-evoked pains has also been reported as occurring in areas outside the territory of the damaged nerve, areas innervated by uninjured nerves.
(§2) Behavioural tests for spontaneous pain, thermal hyperalgesia, and mechanical allodynia were conducted to evaluate different components of neuropathic pain. Baseline data for each test was collected prior to any experimental procedure; in addition, all animals were tested for the development of chronic pain behaviours 13-25 days after CCI surgery 1 day prior to the day of vehicle (0.04 ml sterile water/10 g body weight) or drug administration and after vehicle/drug administration. The sequence of the tests was (1) spontaneous pain-related behaviour (2) mechanical allodynia, (3) thermal hyperalgesia in order to minimise the influence of one test on the result of the next. The testing procedures and results are presented separately for each aspect of chronic pain. Either 0 (vehicle, 0.04 ml/10 g body weight), 5, 10, 20 or 40 mg/kg of SPM 927 (n=7-23/group) was administered i.p. 15 minutes before the first behavioural test.
Thermal hyperalgesia was assessed by means of withdrawal latency in response to radiant heat applied to the subplantar surface of the ligated rat hind paw. As compared to the baseline latency (s), a significant decrease in the (postoperative) latency of foot withdrawal in response to the thermal stimulus was interpreted as indicating the presence of thermal hyperalgesia following chronic constriction injury.

[2] = test system: neuropathic pain (CHUNG), tactile stimulation; assay: Neuropathic pain (CHUNG) test, tactile stimulation on lesioned paw; type: in vivo, rat; settings: for FORCE INDUCING PAW-WITHDRAWAL, % change: compared with lesioned control; for FORCE INDUCING PAW-WITHDRAWAL, mean ± s.e.m.: lesioned paw
Source text: (§3) The following Tables 8 and 9 show the effects of harkoseride (hereinafter referred tows SPM 927), carbamazepine, levetiracetam, gabapentin and morphine in the neuropathic pain (CHUNG) test in the rat. Eight (8) rats per group were used.

[3] = test system: neuropathic pain (CHUNG), thermal stimulation; assay: Neuropathic pain (CHUNG) test, thermal stimulation on lesioned paw; type: in vivo, rat; settings: for PAW-WITHDRAWAL LATENCY, % change: compared with lesioned control; for PAW-WITHDRAWAL LATENCY, mean ± s.e.m.: lesioned paw
Source text: as §3

[4] = test system: Carrageenan-induced mechanical hyperalgesia; assay: Carrageenan-induced mechanical hyperalgesia, paw pressure (Randall-Sellito) test; type: in vivo, rats; settings: for nociceptive threshold: inflamed paw, 3 h after carrageenan
Method: Carrageenan-induced mechanical hyperalgesia in rats was induced by subplantar injection of a 0.1 ml of a 2% carrageenan suspension and measured 3 h afterwards by the paw pressure (Randall-Sellito) test.
Drugs and experimental design: SPM 927 and GBP were suspended in 1% methylcellulose and administered i.p. at doses of 10 mg/kg, 20 mg/kg and 40 mg/kg. Pre-treatment time was 30 min before pain measurement. One group of animals served as controls and consequently received an injection of solvent (10 ml/kg) and another group of animals received a reference compound (Carrageenan test: 10 mg/kg indomethacin; Formalin test: 10 mg/kg morphine). Each compound was tested in a separate experiment and each experiment included a control and a reference group. 10 rats per group were used in the Carrageenan test and 6 mice per group in the formalin test.

[5] = test system: spontaneous pain induced by unilateral chronic constriction injury; assay: Chronic constriction injury (CCI, Bennett model): spontaneous pain; type: in vivo, rat; settings: for Spontaneous nociception, weighted pain score, Post-op + Drug: ligated paw, score 0-5, ±SEM
Method: as §1, §2
Spontaneous pain (ongoing pain without an apparent external stimulus) of the ligated paw was assessed for 5 min following a 10 min acclimation period by use of a rating score (weighted behaviour score scaled 0-5).

SMILES: COC[C@@H](NC(C)=O)C(=O)NCc1ccccc1 [SPM 927, (R)-2-Acetamido-N-benzyl-3-methoxypropionamide]
- Thermal hyperalgesia, withdrawal latency, Post-op + Drug ([1]; 5 mg/kg i.p.): 9.2 ± 0.98 s
- Thermal hyperalgesia, withdrawal latency, Post-op + Drug ([1]; 10 mg/kg i.p.): 8.1 ± 0.59 s
- Thermal hyperalgesia, withdrawal latency, Post-op + Drug ([1]; 20 mg/kg i.p.): 9.7 ± 0.96 s
- Thermal hyperalgesia, withdrawal latency, Post-op + Drug ([1]; 40 mg/kg i.p.): 10.2 ± 0.75 s
- effect on thermal hyperalgesia (in words) ([1]; 5-40 mg/kg i.p.): dose dependently reduced
- dose at which the maximum effect on thermal hyperalgesia is seen ([1]; i.p.): 20 mg/kg
- FORCE INDUCING PAW-WITHDRAWAL, % change ([2]; 8 mg/kg i.p. -30 min): +56% (b)
- FORCE INDUCING PAW-WITHDRAWAL, mean ± s.e.m. ([2]; 8 mg/kg i.p. -30 min): 27.2 ± 4.9 NS (b) g
- FORCE INDUCING PAW-WITHDRAWAL, % change ([2]; 16 mg/kg i.p. -30 min): +40% (b)
- FORCE INDUCING PAW-WITHDRAWAL, mean ± s.e.m. ([2]; 16 mg/kg i.p. -30 min): 24.4 ± 3.0 NS (b) g
- FORCE INDUCING PAW-WITHDRAWAL, % change ([2]; 32 mg/kg i.p. -30 min): +116% (b)
- FORCE INDUCING PAW-WITHDRAWAL, mean ± s.e.m. ([2]; 32 mg/kg i.p. -30 min): 37.6 ± 6.1 (b) g
- comparison of effects in the CHUNG test (in words) ([2]; tactile and thermal stimulation, i.p.): minimum comparable, but usually more potent than the reference compounds
- PAW-WITHDRAWAL LATENCY, % change ([3]; 8 mg/kg i.p. -30 min): +60% (b)
- PAW-WITHDRAWAL LATENCY, mean ± s.e.m. ([3]; 8 mg/kg i.p. -30 min): 26.1 ± 5.4 NS (b) sec
- PAW-WITHDRAWAL LATENCY, % change ([3]; 16 mg/kg i.p. -30 min): +3% b)
- PAW-WITHDRAWAL LATENCY, mean ± s.e.m. ([3]; 16 mg/kg i.p. -30 min): 16.8 ± 4.5 NS (b) sec
- PAW-WITHDRAWAL LATENCY, % change ([3]; 32 mg/kg i.p. -30 min): +29% (b)
- PAW-WITHDRAWAL LATENCY, mean ± s.e.m. ([3]; 32 mg/kg i.p. -30 min): 21.1 ± 5.6 NS (b) sec
- nociceptive threshold ([4]; 10 mg/kg i.p. 30 min before measurement): 324 ± 15^b
- nociceptive threshold ([4]; 20 mg/kg i.p. 30 min before measurement): 426 ± 24^b
- nociceptive threshold ([4]; 40 mg/kg i.p. 30 min before measurement): 444 ± 13^b
- effect on Carrageenan-induced mechanical hyperalgesia (in words) ([4]; 10, 20, 40 mg/kg i.p.): full reversal; also recorded: comparable to that of the reference compound Indomethacin
- Spontaneous nociception, weighted pain score, Post-op + Drug ([5]; 5 mg/kg i.p.): 1.8 ± 0.18
- Spontaneous nociception, weighted pain score, Post-op + Drug ([5]; 10 mg/kg i.p.): 1.5 ± 0.11
- Spontaneous nociception, weighted pain score, Post-op + Drug ([5]; 20 mg/kg i.p.): 0.9 ± 0.14
- Spontaneous nociception, weighted pain score, Post-op + Drug ([5]; 40 mg/kg i.p.): 0.8 ± 0.28
- effect on level of spontaneous pain (in words) ([5]; 5-40 mg/kg i.p.): did not change
